Where two headings read alike, the source gives them in different places.
Tests used:
hLXRα = target: T1, hLXRα (Homo sapiens, UniProt Q13133); test: luciferase assay with GAL-4 chimeric hLXRα receptor in human embryonic kidney 293 cells; format: cell-based; conditions: for Emax: HEK293, 24 h, read-out: LXRα Efficacy (%) ± SD; for LXR isoform selectivity profile: LXRα versus LXRβ, GAL4 luciferase assays
T1 sequence (Q13133 209-447 limits assumed): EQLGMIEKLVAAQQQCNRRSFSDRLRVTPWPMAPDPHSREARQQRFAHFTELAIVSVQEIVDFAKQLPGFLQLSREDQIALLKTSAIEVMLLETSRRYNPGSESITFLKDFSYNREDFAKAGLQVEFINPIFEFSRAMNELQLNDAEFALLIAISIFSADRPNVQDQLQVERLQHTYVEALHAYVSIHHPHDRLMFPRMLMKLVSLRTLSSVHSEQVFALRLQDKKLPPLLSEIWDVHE
Procedure: (§1) All the synthesized compounds were first tested for their ability to activate LXRs by using luciferase assays with GAL-4 chimeric receptors. These were performed by co-transfecting plasmids encoding hLXRα- and β-binding domains fused to GAL-4, with the respective responsive element conjugated with the luciferase reporter gene into the human embryonic kidney 293 cells.
(§2) Cell Culture and Co-transfection Assays. Human embryonic Kidney 293 cells (American Type Culture Collection) were cultured in Dulbecco's Modified Eagle's medium containing 10% of fetal bovine serum at 37° C. in humidified atmosphere of 5% CO2. HEK293 cells (4×10^4 cells per well) were transiently transfected in 48 well plate with the reporter plasmids pMH100X4-TK-luc (100 ng/well), Renilla (22 ng/well) together with 100 ng/well of pCMX-Gal4-RXR, pCMX-Gal4-PPAR-γ, pCMX-Gal4-PXR, pFA-CMV-FXR pCMX-Gal4-LXR-α or pCMX-Gal4-LXR-β plasmids using X-tremeGENE 9 DNA Transfection Reagent (Roche). Six hours after transfection, the cells were treated with the appropriate compound for 24 hours. Luciferase activities were analyzed by luciferase Dual Reporter Assay Systems (Promega) according to the manufacturer's protocol. GAL4-LXRs, GAL4-PPAR-γ, GAL4-RXR and TK-MHC100-luc plasmids were described in Villablanca et al.49 GAL4-PXR was a kind gift of Dr. Enrique Sainz (The Scripps Research Institute, La Jolla, USA). GAL4-FXR was a kind gift of Dr. Daniel Merk (Goethe-University Frankfurt am Main). The results obtained by luciferase assays and reported in Table 1 are from three to five independent experiments.
(§3) Statistical analysis. Data are expressed as mean±SEM and were analyzed for significance by ANOVA with Dunnet's multiple comparison tests. The analysis was performed with Prism software. Data in Table 1 are expressed as EC50±SD. In particular, the standard deviations were obtained by calculating the mean of the EC50 of each experiment (three to five independent experiments). The efficacy (%) of the compounds was calculated as the percentage of the compound effect, in terms of LXRα or β activation, versus 8 μM of 22R—HC±SD. The analyses were performed with Prism software.

hLXRβ = target: T2, hLXRβ (Homo sapiens, UniProt P55055); test: luciferase assay with GAL-4 chimeric hLXRβ receptor in human embryonic kidney 293 cells; format: cell-based; conditions: for Emax: HEK293, 24 h; for beta/alfa efficacy ratio: LXRβ efficacy over LXRα efficacy
T2 sequence (P55055 222-460 limits assumed): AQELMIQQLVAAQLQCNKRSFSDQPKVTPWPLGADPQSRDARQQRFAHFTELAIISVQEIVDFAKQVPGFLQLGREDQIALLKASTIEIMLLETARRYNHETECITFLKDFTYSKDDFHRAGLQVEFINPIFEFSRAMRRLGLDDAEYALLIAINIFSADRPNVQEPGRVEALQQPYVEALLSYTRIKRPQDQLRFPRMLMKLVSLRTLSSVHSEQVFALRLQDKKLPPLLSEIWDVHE
Procedure: as §1, §2, §3

ABCA1 = test: qPCR of ABCA1 expression in PMA-differentiated U937 cells; format: cell-based, human; conditions: U937 differentiated with PMA 72 h; 10 μM, 6 hours
Procedure: (§4) U937 cells differentiated with PMA for 72 hours were treated with T0901317 (10 μM), 22R—HC (3) or with the tested compound (10 μM). […] (n=3/group). *p<0.05, **p<0.01, ***p<0.001.
(§5) LXR agonists induce the expression of target genes, which are involved in cholesterol homeostasis, particularly in the reverse cholesterol transport pathway.43 Indeed, LXR agonists induce the expression of ABCA1 both in macrophages and in many tissues of the periphery such as the intestine.44 Moreover, ABCA1 regulates cholesterol efflux to APOAI acceptors.45 In the liver, LXR activation promotes the biosynthesis of fatty acids, a process also termed as de novo lipogenesis by inducing the expression of the master regulator of hepatic lipogenesis sterol-regulatory element-binding protein 1C (SREBP-1c), as well as several downstream genes in the SREBP-1c pathway, including steroyl CoA desaturase 1 (SCD1) and fatty acid synthase (FASN).43 Therefore, it was investigated, by quantitative PCR (qPCR), the expression of ABCA1, SREBP1c, FASN, and SCD1, by using RNA from monocytic U937 cells (FIG. 3) and from hepatic HepG2 cells (FIG. 4) stimulated with our compounds, the non-steroidal agonist T0901317 or the endogenous ligand 22R—HC (3) as positive controls. […] Then, the induction of genes involved in the lipogenesis using the hepatic cell line HepG2. 43,22 was evaluated. […] Over the time, indeed, substantial efforts have been dedicated to the identification of LXR ligands able to turning on ABC transporter genes, without affecting lipogenic genes levels. This task is still one of the major challenge to the discovery of a clinically useful LXR modulator for atherosclerosis.
(§6) Quantitative Real-Time-PCR. U937 cell line was differentiated in foam macrophages with phorbol 12-myristate 13-acetate (PMA) 10 ng/ml (Sigma) for 72 hours at 37° C. in […] at the concentration of 3×10^6 cells in 10 ml RPMI 10% FBS. At day 3 nuclear receptor ligands were added for 6 hours. HepG2 cells were treated with the ligands as described by Quinet et al.22 Total RNA was purified by TRIZOL (Invitrogen, Carlsbad, Calif., USA). Reverse transcription was performed incubating 2 μg of total RNA 1 hour at 42° C. with MLV-reverse transcriptase (Promega). Quantitative PCR was performed using Sybr Green Master Mix (Applied Biosystems) and real-time PCR (Viia 7 Real Time PCR System, Applied Biosystems). All PCR reactions were done in triplicate. The comparative Ct method was used to quantify transcripts that were normalized for human GAPDH. the following primer pairs were used: […]

SREBP1c = test: qPCR of SREBP1c expression in PMA-differentiated U937 cells; format: cell-based, human; conditions: U937 differentiated with PMA 72 h; 10 μM, 6 hours
Procedure: as §4, §5, §6

SCD1 = test: qPCR of SCD1 expression in PMA-differentiated U937 cells; format: cell-based, human; conditions: U937 differentiated with PMA 72 h; 10 μM, 6 hours
Procedure: as §4, §5, §6

MCP-1/CCL2 = test: qPCR of CCL2 expression in differentiated U937 cells treated with LPS; format: cell-based, human; conditions: differentiated U937, 6 hours, 10 μM in combination with LPS (100 ng/ml)
Procedure: (§7) U937 cells differentiated with PMA for 72 hours were treated with LPS (100 ng/ml) in combination with T0901317 (10 μM) or with the title compounds (10 μM). […] (n=3/group). *p<0.05, **p<0.01, ***p<0.001.
as §6

TNFα = test: qPCR of TNFα expression in differentiated U937 cells treated with LPS; format: cell-based, human; conditions: differentiated U937, 6 hours, 10 μM in combination with LPS (100 ng/ml)
Procedure: as §7, §6

hPXR = test: luciferase assay GAL4-hPXR in human embryonic kidney 293 cells; format: cell-based; conditions: compounds at 10 μM
Procedure: Human embryonic kidney 293 cells were co-transfected with GAL4-hRXR (A), GAL4-hPPARγ (B), GAL4-hPXR (C) and GAL4-hFXR (D) expression plasmids together with GAL4 responsive element pMHC100X4-TK-luc and Renilla plasmids. Cells were incubated with vehicle (DMSO), PFMs at the concentration of 10 μM, and the nuclear receptor specific ligands 9cis retinoic acid (100 nM) (A), Rosiglitazone (RSG 100 nM) (B), T0901317 (100 nM) (C) and GW4064 (100 nM) (D) for six hours. The values represent mean±S.D. RLA, relative luciferase activity.
The selectivity of our compounds within the nuclear receptor superfamily was also evaluated by luciferase assays using GAL4-RXR, -PPARγ, -PXR and -FXR plasmids.
as §2

[1] = GAL4-hLXRα luciferase, HEK293, dose-response 32-1 μM, mean of three-five independent experiments, read-out: LXRα EC50 (μM) ± SD
[2] = % of compound effect versus 8 μM of 22R-HC
[3] = GAL4-hLXRβ luciferase, HEK293, dose-response 32-1 μM, mean of three-five independent experiments, read-out: LXRβ EC50 (μM) ± SD
[4] = read-out: LXRβ Efficacy (%) ± SD, % of compound effect versus 8 μM of 22R-HC

## CC(C)[C@@H](C)CC(=O)[C@@H](C)[C@H]1CC[C@H]2C3=CC=C4C[C@@H](O)CC[C@]4(C)[C@H]3CC[C@]12C [Compound 28, 3β-Hydroxyergost-5,7-diene-22-one]
hLXRα; [1]
  EC50: 8.51 ± 0.42 µM
hLXRα; [2]
  Emax: 70.2 ± 3.9%
hLXRα
  LXR isoform selectivity profile: selective LXRα agonists

## CC[C@@H](C(C)C)[C@H](O)C[C@@H](C)[C@H]1CC[C@H]2[C@@H]3CC=C4C[C@@H](O)CC[C@]4(C)[C@H]3CC[C@]12C [Compound 19, (23R)-3β-Stigmast-5-ene-3,23-diol]
hLXRα; [1]
  EC50: 3.2 ± 0.54 µM
hLXRβ; [3]
  EC50: 2.7 ± 1.16 µM
ABCA1
  ABCA1 expression: strong induction of ABCA1 expression
SREBP1c
  SREBP-1c up-regulation: poor activators of SREBP1c and SCD1
SCD1
  SCD1 expression: poor activators of SREBP1c and SCD1
MCP-1/CCL2
  inhibition of CCL2 expression: same grade of potency of the positive control T0901317
TNFα
  inhibition of TNFα expression: the most active

## CC[C@](O)(CC[C@@H](C)[C@H]1CCC2C3CC=C4C[C@@H](O)CC[C@]4(C)C3CC[C@@]21C)C(C)C (stereo partly drawn) [Compound 29]
hLXRα
  EC50: 3.72 ± 0.5 µM
  Emax: 11 ± 4.08%
hLXRβ
  EC50: 3.21 ± 0.6 µM
  beta/alfa efficacy ratio: 4.4
hLXRβ; [4]
  Emax: 48.4 ± 5%

## CC(C)[C@@H](C)C[C@H](O)[C@@H](C)[C@H]1CC[C@H]2C3=CC=C4C[C@@H](O)CC[C@]4(C)[C@H]3CC[C@]12C [Compound 22, (22S)-3β-Ergost-5,7-diene-3,22-diol]
hLXRα; [1]
  EC50: 6.61 ± 1.69 µM
hLXRβ; [3]
  EC50: 1.96 ± 0.1 µM
hPXR
  PXR activation: slight activation of PXR
MCP-1/CCL2
  inhibition of CCL2 expression: same grade of potency of the positive control T0901317

## C=C[C@@](O)(CC[C@@H](C)C1CCC2C3CC=C4C[C@@H](O)CC[C@]4(C)C3CC[C@@]21C)C(C)C (stereo partly drawn) [Compound 12, 24(S)-saringosterol, reference compound]
hLXRα
  Emax: 43.4 ± 17.6%
hLXRβ; [4]
  Emax: 61 ± 17.4%
hLXRβ
  beta/alfa efficacy ratio: 1.4

## CC[C@@H](C(C)C)[C@@H]1O[C@H]1[C@@H](C)[C@H]1CC[C@H]2[C@@H]3CC=C4C[C@@H](O)CC[C@]4(C)[C@H]3CC[C@]12C [Compound 14, (22S,23S)-22,23-Epoxystigmast-5-ene-3β-ol]
hLXRα; [1]
  EC50: 16.4 ± 0.62 µM
hLXRα
  Emax: 56.8 ± 4.6%
hLXRβ; [3]
  EC50: 12.7 ± 2.7 µM
hLXRβ; [4]
  Emax: 36.3 ± 3%

## CC(C)[C@@H](C)[C@H](O)C[C@@H](C)[C@H]1CC[C@H]2C3=CC=C4C[C@@H](O)CC[C@]4(C)[C@H]3CC[C@]12C [Compound 23, (23R)-3β-Ergost-5,7-diene-3,23-diol]
hLXRα; [1]
  EC50: 15.8 ± 0.65 µM
hLXRα; [2]
  Emax: 63.9 ± 26.9%

## CC(C)[C@@H](C)[C@H]1O[C@@H]1[C@@H](C)[C@H]1CC[C@H]2C3=CC=C4C[C@@H](O)CC[C@]4(C)[C@H]3CC[C@]12C [Compound 15, (22R,23R)-22,23-Epoxyergosta-5,7-diene-3β-ol]
hLXRα; [1]
  EC50: 4.11 ± 0.31 µM
hLXRα; [2]
  Emax: 93.2 ± 5.8%
hLXRβ; [3]
  EC50: 7.2 ± 0.94 µM
hLXRβ; % of compound effect versus 8 μM of 22R-HC, read-out: LXRβ Efficacy (%) ± SD
  Emax: 30.4 ± 10.6%
hPXR
  PXR activation: slight activation of PXR

## CC(C)[C@@H](C)[C@@H](O)C[C@@H](C)[C@H]1CC[C@H]2C3=CC=C4C[C@@H](O)CC[C@]4(C)[C@H]3CC[C@]12C [Compound 21, (23S)-3β-Ergost-5,7-diene-3,23-diol]
hLXRα; [1]
  EC50: 8.07 ± 1.6 µM
hLXRα; [2]
  Emax: 159 ± 41.3%
hLXRα
  LXR isoform selectivity profile: selective LXRα agonists
hPXR
  PXR activation: slight activation of PXR
MCP-1/CCL2
  inhibition of CCL2 expression: same grade of potency of the positive control T0901317
TNFα
  inhibition of TNFα expression: the most active

## CC(C)[C@@H](C)C(=O)C[C@@H](C)[C@H]1CC[C@H]2C3=CC=C4C[C@@H](O)CC[C@]4(C)[C@H]3CC[C@]12C [Compound 27, 3β-Hydroxyergost-5,7-diene-23-one]
hLXRα; [1]
  EC50: 5.58 ± 0.3 µM
hLXRα; [2]
  Emax: 151 ± 4.8%
hLXRα
  LXR isoform selectivity profile: selective LXRα agonists

Source: patent US20200157135A1, “SIDE-CHAIN MODIFIED ERGOSTEROL AND STIGMASTEROL DERIVATIVES AS LIVER X RECEPTOR MODULATORS” (Ospedale San Raffaele srl, priority 2017, published 2020)
